# Laboratory results taken from patent US10836708B2, “Process for the synthesis of (s) 3-amino-4-(difluoromethylenyl)cyclopent-1-ene-1-carboxylic acid” (NORTHWESTERN UNIVERSITY, priority 2018, dated 2020).
# Columns and labels:
# [1] = tested on: γ-aminobutyric acid aminotransferase (GABA-AT); settings: statement in the background section; cited from earlier work
# [2] = with prolonged use; cited from earlier work
# multiple GABA receptors = settings: cited from earlier work
# [3] = tested on: release of dopamine in the corpus striatum; settings: rats; after exposure to cocaine or nicotine; compared with previous inhibitors of GABA-AT; cited from earlier work
# alanine aminotransferase = settings: off-target aminotransferase enzyme; cited from earlier work
# [4] = tested on: aspartate aminotransferase; settings: off-target aminotransferase enzyme; cited from earlier work
# [5] = target: hERG potassium ion channel (Homo sapiens, UniProt Q12809); settings: cited from earlier work
# [6] = tested on: various microsomal cytochrome P450 enzymes; settings: cited from earlier work
# Chain of hERG potassium ion channel (Q12809 whole entry): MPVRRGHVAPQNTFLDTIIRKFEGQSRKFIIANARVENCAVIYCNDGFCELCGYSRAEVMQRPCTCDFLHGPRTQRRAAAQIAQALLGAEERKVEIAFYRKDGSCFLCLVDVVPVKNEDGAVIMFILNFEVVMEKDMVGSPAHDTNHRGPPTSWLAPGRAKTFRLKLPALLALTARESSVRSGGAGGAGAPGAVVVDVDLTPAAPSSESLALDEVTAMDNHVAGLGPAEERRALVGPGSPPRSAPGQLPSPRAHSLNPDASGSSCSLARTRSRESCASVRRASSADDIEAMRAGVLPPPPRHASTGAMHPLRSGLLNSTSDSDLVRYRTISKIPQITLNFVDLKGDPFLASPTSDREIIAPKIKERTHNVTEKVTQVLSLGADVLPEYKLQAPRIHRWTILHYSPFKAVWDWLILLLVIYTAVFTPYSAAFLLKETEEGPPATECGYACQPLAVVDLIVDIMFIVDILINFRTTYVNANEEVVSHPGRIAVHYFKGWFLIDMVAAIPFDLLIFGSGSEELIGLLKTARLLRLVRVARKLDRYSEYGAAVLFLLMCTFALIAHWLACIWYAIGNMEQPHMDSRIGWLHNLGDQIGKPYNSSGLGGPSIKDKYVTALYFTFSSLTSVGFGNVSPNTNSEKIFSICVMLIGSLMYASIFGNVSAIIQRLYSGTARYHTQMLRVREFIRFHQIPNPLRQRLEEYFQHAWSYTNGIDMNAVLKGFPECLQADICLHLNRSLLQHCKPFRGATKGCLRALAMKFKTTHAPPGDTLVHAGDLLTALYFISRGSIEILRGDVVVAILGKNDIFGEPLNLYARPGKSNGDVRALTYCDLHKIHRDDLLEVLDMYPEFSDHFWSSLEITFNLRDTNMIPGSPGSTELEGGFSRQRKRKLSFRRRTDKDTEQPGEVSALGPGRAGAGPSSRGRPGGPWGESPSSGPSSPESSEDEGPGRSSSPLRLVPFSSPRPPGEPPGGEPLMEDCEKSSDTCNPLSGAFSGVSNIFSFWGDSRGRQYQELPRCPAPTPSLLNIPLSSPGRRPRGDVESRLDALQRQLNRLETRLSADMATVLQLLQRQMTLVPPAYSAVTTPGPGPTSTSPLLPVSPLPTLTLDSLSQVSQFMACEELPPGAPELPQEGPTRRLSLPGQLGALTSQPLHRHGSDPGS
Compound,melting point [°C],inhibitor of GABA-AT [1],"retinal damage, share of patients [2]",inhibition of multiple GABA receptors (multiple GABA receptors),suppressing the release of dopamine in the corpus striatum [3],inhibition of alanine aminotransferase (alanine aminotransferase),inhibition of aspartate aminotransferase [4],inhibition of the hERG potassium ion channel [5],inhibition of various microsomal cytochrome P450 enzymes [6]
O=C1N[C@@H]2C(=C(F)F)C[C@H]1[C@H]2Br,139 to 141,–,–,–,–,–,–,–,–
"C=CC(N)CCC(=O)O (stereo not shown) [Vigabatrin, 4-Aminohex-5-enoic acid]",–,inhibitor,25-40 % of patients,inhibits,–,–,–,–,–
N[C@H]1C=C(C(=O)O)CC1=C(F)F [(S)-3-amino-4-(difluoromethylenyl)cyclopent-1-ene-1-carboxylic acid],–,inhibitor,–,–,superior,does not inhibit,does not inhibit,does not inhibit,does not inhibit
